This passage reports IC50 results from patent US20240228501A1, “IMIDAZOLE-CONTAINING CONDENSED RING DERIVATIVE, PREPARATION METHOD THEREFOR, AND APPLICATION THEREOF IN MEDICINE” (CHANGCHUN GENESCIENCE PHARMACEUTICAL CO., LTD., priority 2021, published 2024).

For orientation: IC50 means the point on the concentration scale where inhibition reaches its midpoint. The low end stands for inhibition by little substance, the high end for a need for much substance.

The target in this assay is T1, human NK-3 receptor (Homo sapiens, UniProt P29371).
T1 construct: expressed in transfected cells; host or cells: HEK293
T1 sequence (P29371 1-465): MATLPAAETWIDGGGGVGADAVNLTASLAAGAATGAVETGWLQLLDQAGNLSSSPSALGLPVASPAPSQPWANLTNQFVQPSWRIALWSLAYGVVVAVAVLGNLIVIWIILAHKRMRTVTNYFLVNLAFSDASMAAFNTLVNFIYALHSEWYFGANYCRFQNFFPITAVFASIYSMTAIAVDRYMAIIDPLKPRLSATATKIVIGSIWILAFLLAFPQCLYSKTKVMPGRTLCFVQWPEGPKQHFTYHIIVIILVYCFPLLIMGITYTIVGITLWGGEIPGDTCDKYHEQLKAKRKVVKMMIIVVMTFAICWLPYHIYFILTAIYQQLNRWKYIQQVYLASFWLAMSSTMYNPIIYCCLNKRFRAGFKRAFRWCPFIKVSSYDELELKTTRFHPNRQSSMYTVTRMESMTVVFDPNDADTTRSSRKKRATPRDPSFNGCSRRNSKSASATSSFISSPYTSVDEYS
Description: Antagonistic activity on human NK-3 receptor in human NK-3R/HEK293 stably transfected cells (Fluo-4, FLIPR, Neurokinin B as agonist). Format: cell-based. The settings on record: human NK-3R/HEK293 cells. The procedure:
Test Example 1: Determination of Activity of Compounds of the Present Invention on Human NK-3 Receptor
This method is used to determine antagonistic effects of the compounds of the present invention on the activity of human NK-3 receptor proteins expressed in cell lines stably transfected with human NK-3R/HEK293.
2.1 The cell lines stably transfected with human NK-3R/HEK293 were inoculated in a 384-well cell culture plate at a inoculation density of 12,000 cells/well/25 μL, and cultured at 37° C. and 5% CO2 overnight;
2.2 20× Component A was frozen and thawed to room temperature, diluted 2× with Assay Buffer to working concentration, and kept at room temperature for later use;
2.3 The cell culture plate was equilibrated at room temperature for 10 min, the culture medium was removed, and 20 μL of Assay Buffer and 20 μL of 2× Component A […] were added, followed by centrifugation at 200 g at room temperature for 3-5 sec, and incubation at 37° C. for 2 h;
2.4 The compound was diluted 3 times with DMSO in 384 PP_DMSO plate, and then 240 nl/well of the compound was transferred into a working plate with Echo 550, centrifugated at 200 g at room temperature for 1 min; 40 μl of Assay Buffer was added into the working plate, centrifugated at 200 g at room temperature for 1 min, and then fully mixed in an oscillator at 2500 rpm for 20 min, and then centrifugated at 200 g at room temperature for 1 min for later use;
2.5 2.5 nM Neurokinin B TFA (6×) was prepared from Assay Buffer, 50 uL of which was transferred onto 3657 plate for later use;
2.6 The cell culture plate was taken out and left to stand at room temperature for 10 min, then […] the compound diluted in step 2.4 was added into corresponding wells, and the cell culture plate was left to stand at 25° C. for 30 min; and
2.7 10 μL of the compound diluted in step 2.5 was added into the corresponding experimental wells with FLIPR Tetra, and data was collected.
The antagonistic activity of the compounds of the present invention on the human NK-3 receptor was determined through the above experiments, to obtain inhibition curves of the compounds of the present invention and determine concentrations (IC50) of the corresponding compounds that inhibit 50% of the reference agonist.

`Cc1nsc(-c2nc(N3CCOCC3=O)c3n2CCN(C(=O)c2ccc(F)cc2)[C@@H]3C)n1` [Compound 072, (R)-4-(7-(4-fluorobenzoyl)-8-methyl-3-(3-methyl-1,2,4-thiadiazol-5-yl)-5,6,7,8-tetrahydroimidazo[1,5-a]pyrazin-1-yl)morpholin-3-one] registered an IC50 of 16.8 nM.
As to `CC(=O)Cc1nc(-c2nc(C)ns2)n2c1[C@@H](C)N(C(=O)c1ccc(F)cc1)CC2` [Compound 214, (R)-1-(7-(4-fluorobenzoyl)-8-methyl-3-(3-methyl-1,2,4-thiadiazol-5-yl)-5,6,7,8-tetrahydroimidazo[1,5-a]pyrazin-1-yl)propan-2-one], the IC50 was determined as 246 nM.
Regarding `Cc1nsc(-c2nc(-c3cc(F)nc(F)c3)c3n2CCN(C(=O)c2ccc(F)cc2)[C@@H]3C)n1` [Compound 053, (R)-(1-(2,6-difluoropyridin-4-yl)-8-methyl-3-(3-methyl-1,2,4-thiadiazol-5-yl)-5,6-dihydroimidazo[1,5-a]pyrazin-7 (8H)-yl)(4-fluorophenyl)methanone], the IC50 is 20.2 nM.
In the case of `Cc1nsc(-c2nc(-c3ccncc3)c3n2CCN(C(=O)c2ccc(F)cc2)[C@@H]3C)n1` [Compound 026, (R)-(4-fluorophenyl)(8-methyl-3-(3-methyl-1,2,4-thiadiazol-5-yl)-1-(pyridin-4-yl)-5,6-dihydroimidazo[1,5-a]pyrazin-7 (8H)-yl)methanone] it was 35 nM; in that of `Cc1nsc(-c2nc(N3CCOCC3)c3n2CCN(C(=O)c2ccc(F)cc2)[C@@H]3C)n1` [Compound 033, (R)-(4-fluorophenyl)(8-methyl-3-(3-methyl-1,2,4-thiadiazol-5-yl)-1-morpholino-5,6-dihydroimidazo[1,5-a]pyrazin-7 (8H)-yl)methanone], 50.6 nM.
`C[C@@H]1c2c(N3CCCC3=O)nc(-c3nc(C(F)(F)F)cs3)n2CCN1C(=O)c1ccc(F)cc1` [Compound 118, (R)-1-(7-(4-fluorobenzoyl)-8-methyl-3-(4-(trifluoromethyl)thiazol-2-yl)-5,6,7,8-tetrahydroimidazo[1,5-a]pyrazin-1-yl)pyrrolidin-2-one]: the IC50 is 51.7 nM.
In the case of `Cc1nsc(-c2nc(N3CCC(O)CC3=O)c3n2CCN(C(=O)c2ccc(F)cc2)[C@@H]3C)n1` (stereo partly drawn) [Compound 116, 1-[(R)-7-(4-fluorobenzoyl)-8-methyl-3-(3-methyl-1,2,4-thiadiazol-5-yl)-5,6,7,8-tetrahydroimidazo[1,5-a]pyrazin-1-yl]-4-hydroxypiperidin-2-one] it was 11.9 nM; in that of `Cc1nsc(-c2nc(N3CCN(C)CC3=O)c3n2CCN(C(=O)c2ccc(F)cc2)[C@@H]3C)n1` [Compound 084], 23.7 nM; in that of `COCC(=O)Nc1nc(-c2nc(C)ns2)n2c1[C@@H](C)N(C(=O)c1ccc(F)cc1)CC2` [Compound 089, (R)—N-(7-(4-fluorobenzoyl)-8-methyl-3-(3-methyl-1,2,4-thiadiazol-5-yl)-5,6,7,8-tetrahydroimidazo[1,5-a]pyrazin-1-yl)-2-methoxyacetamide], 58.6 nM.
In the case of `Cc1nsc(-c2nc(N(C)S(C)(=O)=O)c3n2CCN(C(=O)c2ccc(F)cc2)[C@@H]3C)n1` [Compound 064, (R)—N-(7-(4-fluorobenzoyl)-8-methyl-3-(3-methyl-1,2,4-thiadiazol-5-yl)-5,6,7,8-tetrahydroimidazo[1,5-a]pyrazin-1-yl)-N-methylmethanesulfonamide] it was 80.1 nM; in that of `CO[C@@H]1CC(=O)N(c2nc(-c3nc(C)ns3)n3c2[C@@H](C)N(C(=O)c2ccc(F)cc2)CC3)C1` [Compound 115, (R)-1-[(R)-7-(4-fluorobenzoyl)-8-methyl-3-(3-methyl-1,2,4-thiadiazol-5-yl)-5,6,7,8-tetrahydroimidazo[1,5-a]pyrazin-1-yl]-4-methoxypyrrolidin-2-one], 22.7 nM; in that of `Cc1nsc(-c2nc([C@H]3CCCC3=O)c3n2CCN(C(=O)c2ccc(F)cc2)[C@@H]3C)n1` [Compound 211, (R)-2-((R)-7-(4-fluorobenzoyl)-8-methyl-3-(3-methyl-1,2,4-thiadiazol-5-yl)-5,6,7,8-tetrahydroimidazo[1,5-a]pyrazin-1-yl)cyclopentan-1-one], 284 nM.
In the case of `Cc1nsc(-c2nc(C(F)F)c3n2CCN(C(=O)c2ccc(F)cc2)[C@@H]3C)n1` [Compound 197, (R)-(1-(difluoromethyl)-8-methyl-3-(3-methyl-1,2,4-thiadiazol-5-yl)-5,6-dihydroimidazo[1,5-a]pyrazin-7 (8H)-yl)(4-fluorophenyl)methanone] it was 216 nM; in that of `Cc1nsc(-c2nc(N3COCC3=O)c3n2CCN(C(=O)c2ccc(F)cc2)C3C)n1` (stereo not drawn) [Compound 169, 3-(7-(4-fluorobenzoyl)-8-methyl-3-(3-methyl-1,2,4-thiadiazol-5-yl)-5,6,7,8-tetrahydroimidazo[1,5-a]pyrazin-1-yl)oxazolidin-4-one], 65.7 nM; in that of `Cc1nsc(-c2nc(N3CCOC3=O)c3n2CCN(C(=O)c2ccc(F)cc2)[C@@H]3C)n1` [Compound 101, (R)-3-(7-(4-fluorobenzoyl)-8-methyl-3-(3-methyl-1,2,4-thiadiazol-5-yl)-5,6,7,8-tetrahydroimidazo[1,5-a]pyrazin-1-yl)oxazolidin-2-one], 20.2 nM.
In turn, `CC(=O)N(C)c1nc(-c2nc(C)ns2)n2c1[C@@H](C)N(C(=O)c1ccc(F)cc1)CC2` [Compound 060, (R)—N-(7-(4-fluorobenzoyl)-8-methyl-3-(3-methyl-1,2,4-thiadiazol-5-yl)-5,6,7,8-tetrahydroimidazo[1,5-a]pyrazin-1-yl)-N-methylacetamide] returned an IC50 of 26.9 nM. The IC50 values of the last two compounds are within 1.5-fold of each other.
`Cc1nsc(-c2nc(-c3ccncc3)c3n2CCN(C(=O)c2ccc(F)cc2)C3C)n1` (stereo not drawn) [Compound 005, (4-fluorophenyl)(8-methyl-3-(3-methyl-1,2,4-thiadiazol-5-yl)-1-(pyridin-4-yl)-5,6-dihydroimidazo[1,5-a]pyrazin-7 (8H)-yl)methanone] registered an IC50 of 64.6 nM.
In the case of `Cc1nsc(-c2nc(N3Cc4ccccc4CC3=O)c3n2CCN(C(=O)c2ccc(F)cc2)[C@@H]3C)n1` [Compound 100, (R)-2-(7-(4-fluorobenzoyl)-8-methyl-3-(3-methyl-1,2,4-thiadiazol-5-yl)-5,6,7,8-tetrahydroimidazo[1,5-a]pyrazin-1-yl)-1,4-dihydroisoquinolin-3 (2H)-one] it was 51.9 nM; in that of `C[C@@H]1c2c(N3CCCC3=O)nc(-c3nc([C@@H](C)F)ns3)n2CCN1C(=O)c1ccc(F)cc1` [Compound 186, 1-((R)-7-(4-fluorobenzoyl)-3-(3-((R)-1-fluoroethyl)-1,2,4-thiadiazol-5-yl)-8-methyl-5,6,7,8-tetrahydroimidazo[1,5-a]pyrazin-1-yl)pyrrolidin-2-one], 88.1 nM.
In the case of `COCCc1nc(-c2nc(C)ns2)n2c1C(C)N(C(=O)c1ccc(F)cc1)CC2` (racemic) [Compound 204, rac-(R)-(4-fluorophenyl)(1-(2-methoxyethyl)-8-methyl-3-(3-methyl-1,2,4-thiadiazol-5-yl)-5,6-dihydroimidazo[1,5-a]pyrazin-7 (8H)-yl)methanone] it was 109 nM; in that of `COc1cc(-c2nc(-c3nc(C)ns3)n3c2[C@@H](C)N(C(=O)c2ccc(F)cc2)CC3)ccn1` [Compound 080, (R)-(1-(2-methoxypyridin-4-yl)-8-methyl-3-(3-methyl-1,2,4-thiadiazol-5-yl)-5,6-dihydroimidazo[1,5-a]pyrazin-7 (8H)-yl)(4-fluorophenyl)methanone], 84.5 nM.
